The test system of one experiment is UN-KC-6141 cells. The experiment in a line: Apoptosis by flow cytometry (Annexin V and PI), UN-KC-6141. The class given is cell-based, mouse. Conditions: API 10, 20, 30, 40, 50 μM, 24 h. How it is done:
Panc02 and UN-KC-6141 cells were seeded in 6-well plates allowed to grow to 50-60% confluency. Cells were then treated with API at a dose-dependent concentration (10, 20, 30, 40, 50 μM) or DMSO (1%) as vehicle control and incubated for 24 h at 37° C. in a humidified atmosphere of 5% CO2. Cells were collected and stained with a FITC Annexin V Apoptosis Detection Kit I (BD Bioscience, San Jose, CA, USA) according to the manufacturer's instructions. Acquisition of samples was performed using a flow cytometer BD LSRII (BD Biosciences Immunocytometry Systems, San Jose, CA, USA). FlowJo v10.8 software (TreeStar Inc., Ashland, OR, USA) was used for data analysis.
For orientation: In flow cytometry, cells or beads pass a laser one at a time.

The next experiment has as its system Bcl-2. Put plainly: Western blot of Bcl-2 protein in UN-KC-6141 cells. The class given is cell-based, mouse. As to conditions: API 40 μM. How it is done:
Single-cell suspensions of BM, digested pancreatic tumors cells and UN-KC-6141 cells treated with API (40 μM) were lysed with radioimmunoprecipitation buffer (Sigma-Aldrich), quantified with a BCA Protein Assay kit (Thermo Fisher Scientific, Waltham, MA, USA), resolved by SDS-PAGE (Thermo Fisher Scientific) and transferred onto a nitrocellulose membrane as previously described. Membranes were probed with either anti-SHIP-1 (Santa Cruz Biotechnology, Dallas, TX, USA), anti-iNOS (Cell Signaling Technology) or anti-Bcl-2 (Cell Signaling Technology, Danvers, MA, USA), all at a dilution of 1:1000. All blots were re-probed with a housekeeping protein, HRP-conjugated anti-β-actin (Sigma-Aldrich), at a dilution of 1:20,000. Membranes were then probed with the respective secondary anti-mouse or rabbit IgG HRP-conjugated antibodies (1:1000) of SHIP-1 and iNOS. Detection of SHIP-1, iNOS and β-actin proteins was performed using Super Signal West Pico or Femto Chemiluminescent Substrates (Thermo Fisher Scientific) and then imaged on a Bio-Rad Chemi Doc XRS Imaging System. Normalized densitometric ratios (divided by β-actin) were determined by quantifying WB results using Image J.
For orientation: In western blotting, separated proteins are transferred to a membrane and probed.

Experiment [1] deals with SHIP-1. Put plainly: SHIP-1 gene and protein expression in OPC mice. The class given is in vivo, mouse. As to conditions: API 25 mg/kg IP 3 times per week for 2-3 weeks, vs OPC mice. As for the experimental part: The inventors reported recently that API reduced tumor growth in an orthotopic (O) mouse model of PC (OPC)^12, which is a more clinically relevant model^69. To investigate if API targets miR-155 and regulates SHIP-1 expression in the BM and tumor of an OPC mouse model, OPC mice were treated with API at a dose of 25 mg/kg (IP) 3 times per week for 2-3 weeks.
To generate orthotopic pancreatic models (OPC), anesthetized (1.5-3% isoflurane) mice were injected in the neck of the pancreas, via laparotomy^59, with sterile PBS (CTRL) or 1.25×10^4 Panc02 cells (OPC), in sterile 1×PBS. […]
Isolation of total RNA from digested pancreatic tumors and BM cells was performed using a RNeasy Mini Kit (Qiagen), according to the manufacturer's instructions. RT-PCR of quantified and normalized total RNA was performed using a High-Capacity cDNA RT Kit with an RNase Inhibitor (Applied Biosystems), according to the manufacturer's instructions. […]
Single-cell suspensions of BM, digested pancreatic tumors cells and UN-KC-6141 cells treated with API (40 μM) were lysed with radioimmunoprecipitation buffer (Sigma-Aldrich), quantified with a BCA Protein Assay kit (Thermo Fisher Scientific, Waltham, MA, USA), resolved by SDS-PAGE (Thermo Fisher Scientific) and transferred onto a nitrocellulose membrane as previously described. […]

The subject of another experiment is UN-KC-6141 tumors. Put plainly: Tumor growth in KC-HPC mice. The class given is in vivo, mouse. Conditions: API 25 mg/kg IP three times per week. How it is done: To build on these findings, the inventors then used a novel pancreatic cancer cell line, UN-KC-6141, that resembles human PC due to its expression of a mutated Kras and generated mice harboring these tumor cells, called KC-HPC mice. Such mice were treated with API at a dose of 25 mg/kg (IP) three times per week for 17 days. The inventors examined if API also targets miR-155 and regulates SHIP-1 in the tumors from KC-HPC mouse model. […] All female C57BL/6 mice (6-8 weeks of age) described in this study were purchased from Envigo (Indianapolis, IN, USA) and were acclimatize for one week in a pathogen-free animal facility (University of South Florida (USF) vivarium) before injections with PC cells. To generate heterotopic pancreatic cancer (HPC) models, mice were subcutaneously injected with 1.5×10^5 murine Panc02 (HPC mice) or 5×10^6 murine UN-KC-6141 cells (KC-HPC mice), in sterile 1× phosphate buffer saline (PBS), in the lower ventral abdomen, while control (CTRL) mice received sterile 1×PBS. Once tumors where palpable, API (25 mg/kg, 100 μL volume) treatments (HPC-API and KC-HPC-API), via intraperitoneal (IP) injections, were started while CTRL, HPC and KC-HPC mice received sterile PBS (vehicle) three times per week until the end of the study^12, 55. The HPC models were euthanized 21-28 days post-injection, while the KC-HPC models were euthanized 16-17 days post-injection.

In experiment [2] the test system is SHIP-1. Conditions: API-treated OPC mice, previous findings (ref 12); cited from earlier work.
Another experiment relates to PC-bearing mice. As to conditions: cited from earlier work.
[3] abbreviates: PC mouse model treated with API, earlier report (ref 12).
[4] abbreviates: PC-bearing mice, previous results (ref 12).

In the case of `O=c1cc(-c2ccc(O)cc2)oc2cc(O)cc(O)c12` [API, 40,5,7-Trihydroxyflavone, 5,7-Dihydroxy-2-(4-hydroxyphenyl)-4-benzopyrone], the “apoptosis (Annexin V and PI)” value in the experiment on UN-KC-6141 cells is “induces apoptosis”. Also, in the experiment on Bcl-2, the “Bcl-2 protein expression (WB)” value is “significant decrease”. In the experiment on SHIP-1 [1], the “SHIP-1 gene expression in BM” value is recorded as “significantly increased” and the “SHIP-1 protein expression in BM” value is recorded as “significantly increased”. In addition, in the experiment on UN-KC-6141 tumors, the “tumor burden (tumor volume, tumor area)” value is listed as “significantly reducing”. Also, in the experiment on SHIP-1 [2], the “SHIP-1 gene expression in pancreatic tumor” value was “increased” and the “SHIP-1 protein expression in pancreatic tumor” value is listed as “increased”. Besides, the tumor weights result with PC-bearing mice (PC mice, previous report (refs 12, 55)) is on record as “decreases”. For the same compound, in the experiment on PC-bearing mice (setting [3]), the “intratumoral Treg percentages” value is on record as “significant reduction” and the “splenic Treg percentages” value is “significant reduction”. In addition, in the experiment with PC-bearing mice (setting [4]), the “IFN-γ production from intratumoral CD8+ T cells” value was “increases”, the “granzyme B” value is recorded as “increases” and the perforin entry was “increases”.

The values above are taken from patent US20240415804A1, “METHOD OF TREATING PANCREATIC CANCER” (University of South Florida, priority 2022, published 2024).
